Test results: patent publication US20090111836A1, “Angular Pyranocoumarins, Process for Preparation and Uses Thereof” (CITY UNIVERSITY OF HONG KONG, priority 2007, published 2009)
Values joined by “and” are separate entries in the source; they are usually repeats but may differ in a detail not shown here. Identical values can stand only once. “Also recorded” adds a separate entry of the source.

Legend:
Format in all cases: cell-based, human
[1] = test system: K562-DR cells; assay: Reversal of multidrug resistance (fold decrease of anticancer drug IC50), K562-DR; settings: 4 μM test compound
Experimental: (§1) Cells and cell culture: cell lines used in the experiments are human hepatoma cell line (HepG2), human leukemia cell line (K562), human epidermoid carcinoma cell line (KB-3-1) and their multidrug resistant sublines HepG2-DR, K562-DR. and KB V1. The culture conditions for all cells are following: at 37° C. and 5% CO2), KB-3-1 and KBV1 were cultured in MEM medium containing 10% fetal bovine serum and 100 U/mL antibiotics; K562, K562-DR, HepG2, HepG2-DR were cultured in RPMI-1640 medium containing 10% fetal bovine serum and 100 U/mL, antibiotics. For maintaining the phenotypic characteristics of multidrug resistance, 1.2 μM and 0.1 μM doxorubicin were respectively added into the mediums of HepG2-DR and K562-DR; 200 ng/mL vinblastine was added into the medium of KBV1. Drug resistant cells were grown in drug free medium for at least 7 days before test.
(§2) Each growth inhibition experiment must be repeated three times and results are expressed as mean±standard deviation (SD). Solvents and media were included as blank control.
In MTT assay, cells are inoculated at 5000 cells/well and are incubated overnight. Drug treatment lasts for 68 h. MTT (5 mg/ml in PBS) is added to each well (1:10 dilution). After incubation for 4 hour at 37° C., 5% CO2, 100 μl of stop solution (10% SDS-50% isobutanol-0.01N HCl) is added to each well to stop the reaction. Viable cell number is estimated by correlating to OD at 570 nm.
(§3) 1. Materials and methods: the same with I.
(§4) To evaluate the multidrug resistance reversing ability of (±)-Praeruptorin A derivatives, IC50 values of anticancer drugs in the presence and absence of cis-DMDCK, cis-DMDBK, trans-DMDCK, or trans-DMDBK at certain concentration were determined in HepG2-DR, K562-DR and KB V1 cells. The fold decrease of IC50 value of an anticancer drug in certain cell line achieved by a test compound is calculated (fold decrease=IC50 of an anti-tumor drug alone/IC50 of the anti-tumor drug in combination with the test compound) and is used for evaluating the ability of the test compound to reduce drug resistance. The larger the fold decrease value is, the stronger its ability to reverse drug resistance is. The results were average values of three repetitive tests. Verapamil (P-glycoprotein modulator) is the positive control.

[2] = test system: HepG2-DR cells; assay: Reversal of multidrug resistance (fold decrease of anticancer drug IC50), HepG2-DR
Experimental: as §1, §2
In SRB assay, cells are inoculated at 5000 cells/well in a 96-well microplate and incubated overnight to let cells adhere. Drug treatment lasts for 72 hours and cells are fixed for 1 hour at 4° C. with 50 μl ice-cold 15% trichloroacetic acid and washed with triple-distilled water 5 times. Cellular protein is stained by adding 50 μl of 0.4% SRB in 1% acetic acid for 10 minutes, rinsed with 1% acetic acid 5 times and air-dried. The protein-bound dye is dissolved in 100 μl per well of 10 mM Tris base (pH 10.5). The color intensity of SRB, which positively correlate to cell number in preliminary experiments, is estimated at OD 515 nm.
as §3, §4

[3] = test system: HepG2-DR cells; assay: Cell cycle distribution by flow cytometry (doxorubicin-induced G2/M arrest), HepG2-DR; settings: HepG2-DR; for Cell cycle distribution, G0/G1 / Cell cycle distribution, G2/M / Cell cycle distribution, S / Cell cycle distribution, SubG1: 48 h; for Concentration of test compound that reduced the effective doxorubicin concentration (G2/M arrest) from 50 to 1 μM: combination with doxorubicin
Experimental: 1.2 Instruments: FACSCAN flow cytometry (Becton Dickinson Immunocytometry Systems, San Jose, Calif.), the obtained data were analyzed using the software of Macintosh CellQuest.
1.3 Cell lines: HepG2, HepG2-DR.
1.4 Drug treatment: HepG2 and HepG2-DR cells were respectively treated with each of cis-DMDCK, cis-DMDBK, trans-DMDCK, trans-DMDBK and doxorubicin for 48 hours, or treated respectively with the combination of doxorubicin and one of cis-DMDCK, cis-DMDBK, trans-DMDCK, trans-DMDBK for 48 hours.
1.5 Treatment and detection of sample cells: after washed twice by ice-cold PBS, the cells were fixed with 70% ethanol at −20° C. overnight. The fixed cells were washed by PBS once and resuspended in 1 mL of PBS containing 100 μg/mL RNAase A and incubated at 37° C. for 30 minutes. Finally, propidium iodide solution (final concentration is 40 μg/mL,) was added to bind with DNA and incubated at room temperature for 5-10 minutes. Cells were analyzed by FACSCAN flow cytometry immediately.

[4] = test system: P-gp; assay: Immunoblotting analysis of P-gp expression, HepG2-DR; settings: 4 μM, 72 hours
Experimental: Immunoblotting analysis of P-gp expression: cells were treated with 4 μM of cis-DMDCK, 4 μM of cis-DMDBK, 4 μM of trans-DMDCK, or 4 μM of trans-DMDBK for 72 hours. Treated cells were collected and mixed well in ice-cold lysis buffer (50 mM Tris pH7.4, 100 mM NaCl, 2 mM EDTA, 1% sodium deoxycholate, 0.1% SDS, 1% triton X-100, 2 mM PMSF, 1% aprotinin) for 30 minutes and then centrifuged to get the total protein. Protein concentration was determined using Bradford assay. In this experiment, 50 μg total protein was separated by 8% SDS-PAGE and electro-transferred to nitrocellulose membranes. The membrane was blocked by 5% skim milk/0.1% Tween-20/TBS (10 mM Tris pH7.5, 100 mM NaCl), and then incubated with anti-P-pg antibody for 1 hour, followed by horseradish-peroxidase-conjugated secondary antibody for another 1 hour. Protein bands were detected by the ECL method.

[5] = 1 μM doxorubicin + 0.5 μM test compound
[6] = 1 μM doxorubicin + 1 μM test compound
[7] = 1 μM doxorubicin + 2 μM test compound
[8] = 1 μM doxorubicin + 4 μM test compound

Compound	Reversing parameter: fold decrease of IC50, verapamil [1] [fold]	Reversing parameter: fold decrease of IC50 of Doxorubicin [1] [fold]	Reversing parameter: fold decrease of IC50 of Puromycin [1] [fold]	Reversing parameter: fold decrease of IC50 of Vinblastine [1] [fold]	Reversing parameter: fold decrease of IC50 of Doxorubicin ([2]; 2 μM test compound)	Reversing parameter: fold decrease of IC50 of Puromycin ([2]; 2 μM test compound)	Reversing parameter: fold decrease of IC50 of Vinblastine ([2]; 2 μM test compound)	Reversing parameter: fold decrease of IC50 of Doxorubicin ([2]; 4 μM test compound)	Reversing parameter: fold decrease of IC50 of Puromycin ([2]; 4 μM test compound)	Reversing parameter: fold decrease of IC50 of Vinblastine ([2]; 4 μM test compound)	Cell cycle distribution, G0/G1 [3, 6] [%]	Cell cycle distribution, G2/M [3, 6] [%]	Cell cycle distribution, S [3, 6] [%]	Cell cycle distribution, SubG1 [3, 6] [%]	Cell cycle distribution, G0/G1 [3, 7] [%]	Cell cycle distribution, G2/M [3, 7] [%]	Cell cycle distribution, S [3, 7] [%]	Cell cycle distribution, SubG1 [3, 7] [%]	Effect on cell cycle by itself ([3]; 4 μM alone)	Cell cycle distribution, G0/G1 ([3]; 4 μM alone) [%]	also measured
COc1ccc(/C=C/C(=O)O[C@@H]2c3c(ccc4ccc(=O)oc34)OC(C)(C)[C@@H]2OC(=O)/C=C/c2ccc(OC)c(OC)c2)cc1OC (racemic) [cis-DMDCK, (±)-3′-O,4′-O-bis(3,4-dimethoxycinnamoyl)-cis-khellactone]	169.9 ± 39.4	28.8 ± 8.9	38.8 ± 8.9	138.7 ± 39.6	107 fold and 107.9 ± 51.9 fold	111 fold and 111.1 ± 38.0 fold	105 fold and 105.7 ± 21.2 fold	160 fold and 160.6 ± 12.6 fold	140 fold and 140.9 ± 65.1 fold	130 fold and 129.9 ± 35.5 fold	4.39 ± 1.50	81.42 ± 6.02	5.36 ± 3.13	5.59 ± 4.35	4.51 ± 0.45	77.12 ± 3.36	8.87 ± 4.04	6.40 ± 5.54	no effect	52.10 ± 0.61	Reversing parameter: fold decrease of IC50 of Doxorubicin ([2]; 1 μM test compound): 22 fold and 22.5 ± 9.1 fold; Reversing parameter: fold decrease of IC50 of Puromycin ([2]; 1 μM test compound): 29 fold and 29.5 ± 13.0 fold; Reversing parameter: fold decrease of IC50 of Vinblastine ([2]; 1 μM test compound): 45 fold and 45.7 ± 10.3 fold; Cell cycle distribution, G0/G1 [3, 5]: 8.46 ± 1.63%; Cell cycle distribution, G2/M [3, 5]: 79.79 ± 4.56%; Cell cycle distribution, S [3, 5]: 6.52 ± 1.76%; Cell cycle distribution, SubG1 [3, 5]: 4.35 ± 0.59%; Cell cycle distribution, G2/M ([3]; 4 μM alone): 33.20 ± 2.05%; Cell cycle distribution, S ([3]; 4 μM alone): 8.38 ± 4.24%; Cell cycle distribution, SubG1 ([3]; 4 μM alone): 2.25 ± 0.51%; Concentration of test compound that reduced the effective doxorubicin concentration (G2/M arrest) from 50 to 1 μM [3]: 1 µM; Change in P-gp (MDR1) expression level [4]: no detectable alteration; also recorded: not observed
COc1ccc(/C=C/C(=O)O[C@@H]2[C@@H](OC(=O)/C=C/c3ccc(OC)c(OC)c3)c3c(ccc4ccc(=O)oc34)OC2(C)C)cc1OC (racemic) [trans-DMDCK, (±)-3′-O,4′-O-bis(3,4-dimethoxycinnamoyl)-trans-khellactone]	27.8 ± 8.7	16.1 ± 9.6	31.1 ± 16.7	31.6 ± 5.1	8.0 ± 0.6 fold	5.6 ± 0.6 fold	1.9 ± 0.0 fold	59.4 ± 18.5 fold	26.6 ± 6.4 fold	13.9 ± 5.8 fold	34.29 ± 0.21	48.46 ± 2.52	8.80 ± 3.64	3.94 ± 0.77	21.21 ± 1.48	64.06 ± 3.56	5.79 ± 4.05	6.55 ± 0.12	no effect	47.46 ± 0.55	Cell cycle distribution, G0/G1 [3, 8]: 6.03 ± 0.91%; Cell cycle distribution, G2/M [3, 8]: 79.52 ± 0.66%; Cell cycle distribution, S [3, 8]: 5.70 ± 4.20%; Cell cycle distribution, SubG1 [3, 8]: 4.29 ± 1.99%; Cell cycle distribution, G2/M ([3]; 4 μM alone): 33.42 ± 1.98%; Cell cycle distribution, S ([3]; 4 μM alone): 7.97 ± 1.05%; Cell cycle distribution, SubG1 ([3]; 4 μM alone): 2.07 ± 0.06%; Concentration of test compound that reduced the effective doxorubicin concentration (G2/M arrest) from 50 to 1 μM [3]: 4 µM; Change in P-gp (MDR1) expression level [4]: no detectable alteration; also recorded: not observed
